Our source for the IC50 values is patent US8354414B2, “Substituted bicyclic pyrimidines” (Cephalon, Inc, priority 2006, dated 2013).

Read-outs that look alike come from different tables or passages of the source. A value given as a limit tells only on which side of the number the result lay.

One assay deals with T1, His6-GSK-3β (Homo sapiens, UniProt P49841).
T1 construct: made in house; host or cells: Sf21 insect cells (baculovirus)
Description: Inhibition of His6-GSK-3β kinase activity (ELISA-based format, time-resolved fluorescence readout). It is filed as biochemical. To be noted: read-out: GSK3β IC50. An excerpt: Full-length GSK-3β was amplified from a sequence-verified I.M.A.G.E. EST acquired from Research Genetics (Invitrogen, Clone ID# CSODB003YJ02). The final sequence-verified cDNA contained the coding region for a NH2-terminal tag, which encoded for 6 histidines and then eight vector-encoded amino acids prior to the start of GSK3β, which contained by # 43-1342 of Genbank Accession # NM_002093, encoding amino acids #2-419. The predicted molecular weight of the tagged, 435 amino acid, full-length protein is 48.5 kDa. The major structural element of this protein is the kinase domain, which is from amino acids #56-340. Recombinant baculoviral DNA was prepared by transposition in E. coli (BAC-TO-BAC system: Invitrogen) and the virus generated and amplified in Sf21 insect cells. A suspension culture of Sf21 cells was infected at an MOI of 0.7 and cell density of 1.5×10^6 cells/mL in Excell 420 serum-free media (JRH BioScience) and harvested 65 h after infection. The 100,000×g supernatant solution was used for purification. Expression was confirmed by running samples on SDS-PAGE, followed by immunoblot analysis utilizing both a Penta-HIS antibody (Qiagen #34660) and a GSK-3α/GSK-3β antibody (Calbiochem #368662, data not shown). The His6-tagged protein was purified to in one step by Ni-NTA affinity chromatography.
Inhibitory effects of compounds on baculoviral GSK-3β kinase activity were evaluated using an ELISA-based format in a 384-well FluoroNunc Maxisorp plate (Cat # 460372) with a time-resolved fluorescence readout. Briefly, each plate was coated with 50 μl/well of 20 μg/ml substrate solution (recombinant GST-Rb) in Tris-buffered saline (TBS). The GSK-3β assay mixture (total volume=50 μl/well) consisting of 50 mM HEPES (pH 7.2), 20 μM ATP, 10 mM MgCl2, 5 mM EGTA, 25 mM β-glycerophosphate, 0.05% BSA, 2.5% DMSO, and various concentrations of test compound were then added to the assay plate. Enzyme (200 ng/ml His6-GSK-3β) was then added and the reaction was allowed to proceed at 37° C. for 30 minutes. Detection of the phosphorylated product was performed by adding 50 μl/well of phospho-Rb (Ser-780) antibody (Cell Signaling # 9307) diluted 1:10,000 in antibody dilution buffer (0.1% BSA in TBST). After 1-hour incubation at 37° C., 50 μl/well of Eu-N1 labelled anti-rabbit antibody (Wallac # AD0105; 1:50,000 in antibody dilution buffer) was added. Incubation at 37° C. then proceeded for 1 hour, followed by addition of 50 μl enhancement solution (Wallac #1244-105). The plate was gently agitated and after a few minutes, the fluorescence of the resulting solution was measured using a Multilabel Reader (Victor2 Model # 1420-018 or Envision Model 2100). Inhibition data were analyzed using ActivityBase and IC50 curves were generated using XLFit 3.0.5.

Another assay concerns the target T2, CDK5/GST-p25 (Homo sapiens, UniProt Q00535).
T2 construct: The final construct, encoding for full-length human CDK5; made in house; host or cells: Sf21 insect cells (baculovirus co-infection)
Description: Inhibition of CDK5/GST-p25 kinase activity (ELISA with time-resolved fluorescence readout). It counts as biochemical. The method, then:
Two recombinant baculoviral constructs were created, one encoding for human CDK5 and the other encoding for human p25 with an amino-terminal glutathione-S-transferase (GST) tag. PCR amplification of full-length CDK5 was performed utilizing human brain cDNA as a template and Pfu Turbo polymerase (Strategene). The PCR product from this reaction was subcloned into the baculoviral expression vector pFASTBAC1 (Gibco/BRL). The final construct, encoding for full-length human CDK5 (base pairs 25-903 of GenBank Accession #NM_004935), is 292 amino acids long with a predicted MW of 33.3 kDa.
For p25, the active truncated form of p35, amino acids 108-307 were PCR-amplified from human fetal brain cDNA (Clontech QUICK-Clone cDNA) using the Advantage 2 PCR system (Clontech). The PCR product was subcloned into the baculoviral transfer vector pFBGSTP (an engineered derivative of the baculoviral transfer vector pFASTBAC1). The final baculoviral construct encodes for base pairs 419-1021 of GenBank Accession #NM_003885, with an amino-terminal GST tag. The expressed GST-p25 is 444 amino acids long with a predicted MW of 50.3 kDa.
The CDK5/GST-p25 complex was generated by coexpression. Sf21 cells were cultured in TNM-FHS media at a density of 1.5×10^6 cells/mL and infected with each recombinant virus at MOI values of 5 (for CDK5) and 10 (for GST-p25). The cells were harvested 40 h after infection. For purification, the 100,000×g supernatant solution was used. Expression was confirmed by running samples on SDS-PAGE, followed by immunoblot analysis utilizing antibodies against CDK5 (anti-CDK5 (268-283); Calbiochem #219449) and p35 (Santa Cruz #sc820). The CDK5/GST-p25 complex was purified by glutathione affinity chromatography.
Compounds were tested for their ability to inhibit the kinase activity of recombinant baculoviral CDK5/GST-p25 using an enzyme-linked immunosorbent assay (ELISA) with time-resolved fluorescence (TRF) readout. Briefly, each 384-well FluoroNunc Maxisorp plate (Cat # 460372) plate was coated with 50 μl/well of 50 μg/ml substrate solution (recombinant GST-Rb(773-928)) in Tris-buffered saline (TBS). The CDK5/GST-p25 assay mixture (total volume=50 μl/well) consisting of 20 mM HEPES (pH 7.2), 10 μM ATP, 10 mM MgCl2, 5 mM EGTA, 25 mM β-glycerophosphate, 0.05% BSA, 2.5% DMSO, and various concentrations of test compound were then added to the assay plate. Enzyme (2 ng/ml CDK5/GST-p25) was added and the reaction was allowed to proceed at 37° C. for 20 minutes. Detection of the phosphorylated product was performed by adding 50 μl/well of phospho-Rb (Ser-780) antibody (Cell Signaling # 9307) diluted 1:10,000 in antibody dilution buffer (0.1% BSA in TBST). After 1-hour incubation at 37° C., 50 μl/well of Eu-Nl labelled anti-rabbit antibody (Wallac # AD0105; 1:50,000 in antibody dilution buffer) was added. Incubation at 37° C. then proceeded for 1 hour, followed by addition of 50 μl enhancement solution (Wallac #1244-105). The plate was gently agitated and after a few minutes, the fluorescence of the resulting solution was measured using a Multilabel Reader (Victor2 Model # 1420-018 or Envision Model # 2100). Inhibition data were analyzed using ActivityBase and IC50 curves were generated using XLFit 3.0.5.

T2 sequence (Q00535 whole entry): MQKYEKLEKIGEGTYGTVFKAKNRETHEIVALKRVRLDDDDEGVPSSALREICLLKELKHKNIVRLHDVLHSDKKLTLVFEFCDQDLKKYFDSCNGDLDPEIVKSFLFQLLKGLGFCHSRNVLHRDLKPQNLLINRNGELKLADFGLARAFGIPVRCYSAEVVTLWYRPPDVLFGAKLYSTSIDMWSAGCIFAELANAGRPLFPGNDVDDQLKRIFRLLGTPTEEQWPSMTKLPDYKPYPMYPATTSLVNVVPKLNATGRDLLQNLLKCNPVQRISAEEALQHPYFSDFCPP
T2 sequence (Q15078 108-307 partner limits assumed): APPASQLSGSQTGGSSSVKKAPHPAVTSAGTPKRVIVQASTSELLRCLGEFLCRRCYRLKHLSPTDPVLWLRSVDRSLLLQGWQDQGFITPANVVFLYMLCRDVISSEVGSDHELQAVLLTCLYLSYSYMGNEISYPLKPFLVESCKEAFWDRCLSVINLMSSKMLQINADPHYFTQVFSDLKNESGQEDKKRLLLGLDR
T1 sequence (P49841 2-419): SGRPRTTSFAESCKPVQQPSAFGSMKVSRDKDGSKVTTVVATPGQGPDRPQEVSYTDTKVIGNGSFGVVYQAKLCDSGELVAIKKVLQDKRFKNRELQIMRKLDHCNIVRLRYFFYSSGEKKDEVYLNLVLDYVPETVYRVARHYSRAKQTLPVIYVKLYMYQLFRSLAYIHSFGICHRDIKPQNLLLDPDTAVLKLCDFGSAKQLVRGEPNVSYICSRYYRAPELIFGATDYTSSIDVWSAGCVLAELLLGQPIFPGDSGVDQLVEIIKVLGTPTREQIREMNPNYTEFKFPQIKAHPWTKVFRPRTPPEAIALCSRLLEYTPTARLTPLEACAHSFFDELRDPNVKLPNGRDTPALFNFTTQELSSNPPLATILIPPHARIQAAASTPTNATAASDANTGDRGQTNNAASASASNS

Turning to `N#Cc1ccc2c(c1)C(c1nc(NCCc3ccncc3)nc3nn(C4CCCC4)cc13)C(=O)N2` (centres unmarked) [Example 126, 3-(2-cyclopentyl-6-(2-pyridin-4-yl-ethylamino)-2H-pyrazolo [3,4-d]pyrimidin-4-yl)-2-oxo-2,3-dihydro-1H-indole-5-carbonitrile], the IC50 on His6-GSK-3β (class symbols) and against CDK5/GST-p25 (class symbols) was less than 300 nM in each case.
Consider `O=C1Nc2ccc(Cl)cc2C1c1nc(NCCN2CCOCC2)nc2c1CCC2` (centres unmarked) [Example 324, 5-Chloro-3-[2-(2-morpholin-4-yl-ethylamino)-6,7-dihydro-5H-cyclopentapyrimidin-4-yl]-1,3-dihydro-indol-2-one], for which the IC50 at His6-GSK-3β (numeric bounds) and against CDK5/GST-p25 (numeric bounds) was more than 3000 nM throughout.
On to `CN(C)CCNc1nc(C2C(=O)Nc3ccc(C#N)cc32)c2cn(C3CCCC3)nc2n1` (centres unmarked) [Example 119, 3-(2-cyclopentyl-6-(2-dimethylamino-ethylamino)-2H-pyrazolo [3,4-d]pyrimidin-4-yl)-2-oxo-2,3-dihydro-1H-indole-5-carbonitrile], for which the IC50 on His6-GSK-3β (class symbols) was less than 300 nM; against CDK5/GST-p25 (class symbols), 300 to 3000 nM.
In the case of `N#Cc1ccc2c(c1)C(c1nc(N3CCN(CCc4cccs4)CC3)nc3nn(C4CCCC4)cc13)C(=O)N2` (centres unmarked) [Example 130, 3-{2-cyclopentyl-6-[4-(2-thiophen-2-yl-ethyl)-piperazin-1-yl]-2H-pyrazolo[3,4-d]pyrimidin-4-yl}-2-oxo-2,3-dihydro-1H-indole-5-carbonitrile], the figures for the IC50 on His6-GSK-3β (class symbols) and against CDK5/GST-p25 (class symbols) were less than 300 nM and more than 10000 nM, respectively.
On to `CCCn1cc2c(C3C(=O)Nc4ccc(Br)cc43)nc(N[C@H]3CCNC3)nc2n1` (some centres unmarked) [Example 362], for which the half-inhibitory concentration (IC50) on His6-GSK-3β (class symbols) is 300 to 3000 nM; against CDK5/GST-p25 (numeric bounds), more than 3000 nM.
With `N#Cc1ccc2c(c1)C(c1nc(N3CCCC3)nc3nn(C4CCCC4)cc13)C(=O)N2` (centres unmarked) [Example 132, 3-(2-cyclopentyl-6-pyrrolidin-1-yl-2H-pyrazolo [3,4-d]pyrimidin-4-yl)-2-oxo-2,3-dihydro-1H-indole-5-carbonitrile], the IC50 at His6-GSK-3β (class symbols) was less than 300 nM; against CDK5/GST-p25 (class symbols) it was more than 10000 nM.
`N#Cc1ccc2c(c1)C(c1nc(N3CCNCC3)nc3c1CCC3)C(=O)N2` (centres unmarked) [Example 354, 2-Oxo-3-(2-piperazin-1-yl-6,7-dihydro-5H-cyclopentapyrimidin-4-yl)-2,3-dihydro-1H-indole-5-carbonitrile]: the figures for the IC50 on His6-GSK-3β (class symbols) and on CDK5/GST-p25 (class symbols) were 300 to 3000 nM and less than 300 nM, respectively.
Regarding `CCCn1cc2c(C3C(=O)Nc4ccc(C)cc43)nc(NCCN(C)C)nc2n1` (centres unmarked) [Example 309, 3-[6-(2-Dimethylamino-ethylamino)-2-propyl-2H-pyrazolo[3,4-d]pyrimidin-4-yl]-5-methyl-1,3-dihydro-indol-2-one], the IC50 at His6-GSK-3β (class symbols) and on CDK5/GST-p25 (class symbols) was 300 to 3000 nM throughout.
Regarding `CCCn1cc2c(C3C(=O)Nc4ccc(C)cc43)nc(NCCCOC)nc2n1` (centres unmarked) [Example 310, 3-[6-(3-Methoxy-propylamino)-2-propyl-2H-pyrazolo[3,4-d]pryrimidin-4-yl]-5-methyl-1,3-dihydro-indol-2-one], the IC50 on His6-GSK-3β (class symbols) and at CDK5/GST-p25 (class symbols) was 300 to 3000 nM throughout.
In the case of `C[C@@H](O)CNc1nc(C2C(=O)Nc3ccc(Br)cc32)c2cn(C)nc2n1` (stereo partly drawn) [Example 358, 5-Bromo-3-[6-(2-(R)-hydroxy-propylamino)-2-methyl-2H-pyrazolo [3,4-d]pyrimidin-4-yl]-1,3-dihydroindol-2-one], the 50% inhibitory concentration (IC50) on His6-GSK-3β (class symbols) and against CDK5/GST-p25 (class symbols) was less than 300 nM throughout.
In the case of `N#Cc1ccc2c(c1)C(c1nc(NCCN3CCSCC3)nc3nn(C4CCCC4)cc13)C(=O)N2` (centres unmarked) [Example 178, 3-[2-Cyclopentyl-6-(2-thiomorpholin-4-yl-ethylamino)-2H-pyrazolo[3,4-d]pyrimidin-4-yl]-2-oxo-2,3-dihydro-1H-indole-5-carbonitrile], the values for the IC50 on His6-GSK-3β (class symbols) and against CDK5/GST-p25 (class symbols) were less than 300 nM and 300 to 3000 nM, respectively.
Consider `CCCn1cc2c(C3C(=O)Nc4ccc(Br)cc43)nc(NC[C@@H]3CCCO3)nc2n1` (stereo partly drawn) [Example 367, 5-Bromo-3-(2-propyl-6-{[(S)-1-(tetrahydro-furan-2-yl)methyl]-amino}-2H-pyrazolo [3,4-d]pyrimidin-4-yl)-1,3-dihydro-indol-2-one], for which the half-inhibitory concentration (IC50) at His6-GSK-3β (class symbols) and on CDK5/GST-p25 (class symbols) was less than 300 nM throughout.
`CCCn1cc2c(C3C(=O)Nc4ccc(Br)cc43)nc(NC[C@@H](O)CO)nc2n1` (stereo partly drawn) [Example 368, 5-Bromo-3-[6-((R)-2,3-dihydroxy-propylamino)-2-propyl-2H-pyrazolo[3,4-d]pyrimidin-4-yl]-1,3-dihydro-indol-2-one]: the IC50 on His6-GSK-3β (class symbols) and against CDK5/GST-p25 (class symbols) was less than 300 nM throughout.
`N#Cc1ccc2c(c1)C(c1nc(NCc3ccncc3)nc3c1CCC3)C(=O)N2` (centres unmarked) [Example 347, 2-Oxo-3-{2-[(pyridin-4-ylmethyl)-amino]-6,7-dihydro-5H-cyclopentapyrimidin-4-yl}-2,3-dihydro-1H-indole-5-carbonitrile]: the IC50 on His6-GSK-3β (class symbols) and against CDK5/GST-p25 (class symbols) was 300 to 3000 nM each time.
In the case of `CN(C)CCNc1nc2c(c(C3C(=O)Nc4ccc(Cl)cc43)n1)CCC2` (centres unmarked) [Example 323, 5-Chloro-3-[2-(2-dimethylamino-ethylamino)-6,7-dihydro-5H-cyclopentapyrimidin-4-yl]-1,3-dihydro-indol-2-one], the IC50 on His6-GSK-3β (class symbols) and on CDK5/GST-p25 (class symbols) was more than 10000 nM throughout.
For the compound `N#Cc1ccc2c(c1)C(c1nc(NCCN3CCOCC3)nc3c1CCC3)C(=O)N2` (centres unmarked) [Example 341, 3-[2-(2-Morpholin-4-yl-ethylamino)-6,7-dihydro-5H-cyclopentapyrimidin-4-yl]-2-oxo-2,3-dihydro-1H-indole-5-carbonitrile], the IC50 on His6-GSK-3β (class symbols) and against CDK5/GST-p25 (class symbols) was 300 to 3000 nM throughout.
